Experiment [1] has as its system late blight on tomato. Format: in vivo, Plasmopara viticola. The conditions noted are these: tomato (Hofuku), therapeutic effect, sprayed after inoculation, active ingredient 100 ppm, disease severity 7 days after inoculation.
Experiment [2] concerns downy mildew (Plasmopara viticola) on grape. The conditions noted are these: in vivo.

Regarding `CCCC(=O)Nc1cccc(CON=C(c2ccc(Cl)cc2)c2nnnn2C)n1` [(7)-1], the “Control value (%)” value is listed as 80% in experiment [1] and 70% in experiment [2].
As to `COc1ccc(C(=NOCc2cccc(NC(=O)C3CC3)n2)c2nnnn2C)cc1` [(7)-11], the “Control value (%)” value in experiment [1] turned out to be 80%; in experiment [2], 70%.
Consider `Cn1nnnc1C(=NOCc1cccc(NC(=O)OC(C)(C)C)n1)c1ccc(F)cc1` [(9)-3], for which the figures for the “Control value (%)” value in experiment [1] and in experiment [2] were 90% and 70%, respectively.
As to `Cn1nnnc1C(=NOCc1cccc(NC(=O)OCc2ccccc2)n1)c1ccccc1` [(3)-18], the “Control value (%)” value in experiment [1] and in experiment [2] was 100% each time.
`CCCCCCOC(=O)Nc1cccc(CON=C(c2ccccc2)c2nnnn2C)n1` [(3)-15]: the “Control value (%)” value in experiment [1] and in experiment [2] was 100% in each case.
On to `CCCCOC(=O)Nc1cccc(CON=C(c2ccccc2)c2nnnn2C)n1` [(3)-5], for which the “Control value (%)” value in experiment [1] and in experiment [2] was 100% throughout.
Consider `CCC(=O)Nc1cccc(CON=C(c2ccccc2)n2nnnc2C)n1` [(11)-5], for which the “Control value (%)” value in experiment [1] is given as 80%; in experiment [2], 70%.
The corresponding values for `CCCCCC(=O)Nc1cccc(CON=C(c2ccc(C)cc2)c2nnnn2C)n1` [(7)-12] are 100% and 100%.
Turning to `CCC(C)(C)OC(=O)Nc1cccc(CON=C(c2ccccc2)c2nnnn2C)n1` [(3)-21], the “Control value (%)” value in experiment [1] is 100%; in experiment [2] it was 70%.
`CCCCCCC(=O)Nc1cccc(CON=C(c2ccccc2)c2nnnn2C)n1` [(1)-18]: the “Control value (%)” value in experiment [1] and in experiment [2] was 100% each time.
As for `CCCCCCOC(=O)Nc1cccc(CON=C(c2ccccc2)n2nnnc2C)n1` [(13)-15], the figures for the “Control value (%)” value in experiment [1] and in experiment [2] were 90% and 80%, respectively.
For `CCCCOC(=O)Nc1cccc(CON=C(c2ccc([N+](=O)[O-])cc2)n2nnnc2C)n1` [(19)-29], in that order: 100% and 80%.
The corresponding values for `Cn1nnnc1C(=NOCc1cccc(NC(=O)OC(C)(C)C)n1)c1cccc(F)c1` [(9)-1] are 100% and 100%.
For `Cn1nnnc1C(=NOCc1csc(NC(=O)CC(C)(C)C)n1)c1ccccc1` [(2)-16], in that order: 100% and 90%.
For `Cn1nnnc1C(=NOCc1cccc(NC(=O)CC(C)(C)C)n1)c1ccccc1` [(1)-16], the “Control value (%)” value in experiment [1] was 100%; in experiment [2] it was 70%.
For `CCCCCC(=O)Nc1cccc(CON=C(c2cccc(C)c2)c2nnnn2C)n1` [(9)-7], in that order: 100% and 100%.
The corresponding values for `Cc1nnnn1C(=NOCc1cccc(NC(=O)OC2CCCC2)n1)c1ccccc1` [(13)-21] are 100% and 80%.
For `Cn1nnnc1C(=NOCc1cccc(NC(=O)OC(C)(C)C)n1)c1ccccc1` [(3)-8], the “Control value (%)” value in experiment [1] and in experiment [2] was 100% throughout.
With `CCCCOC(=O)Nc1cccc(CON=C(c2ccc(C(F)(F)F)cc2)n2nnnc2C)n1` [(19)-31], the figures for the “Control value (%)” value in experiment [1] and in experiment [2] were 100% and 90%, respectively.
For the molecule `Cc1nnnn1C(=NOCc1csc(NC(=O)c2ccccc2)n1)c1ccccc1` [(16)-3], the results for the “Control value (%)” value in experiment [1] and in experiment [2] were 80% and 70%, respectively.
Regarding `CCCCCC(=O)Nc1cccc(CON=C(c2ccccc2)n2nnnc2C)n1` [(11)-12, (Z)-(5-methyltetrazol-1-yl)phenylmethanoneoxime 0-(6-(hexanoylamino)pyridin-2-yl)methyloxime], the “Control value (%)” value in experiment [1] and in experiment [2] was 100% throughout.
Consider `CCCCCOC(=O)Nc1cccc(CON=C(c2ccccc2)n2nnnc2C)n1` [(13)-9], for which the “Control value (%)” value in experiment [1] and in experiment [2] was 100% throughout.
In the case of `CC(=O)Nc1cccc(CON=C(c2ccccc2)n2nnnc2C)n1` [(11)-4], the “Control value (%)” value in experiment [1] turned out to be 80%; in experiment [2] it was 70%.
As to `CCCCOC(=O)Nc1cccc(CON=C(c2ccc(C#N)cc2)n2nnnc2C)n1` [(19)-25], the “Control value (%)” value in experiment [1] and in experiment [2] was 90% each time.
As for `CCCCOC(=O)Nc1cccc(CON=C(c2cccc(Cl)c2)n2nnnc2C)n1` [(19)-13], the “Control value (%)” value in experiment [1] and in experiment [2] was 100% each time.
Turning to `CC(C)OC(=O)Nc1cccc(CON=C(c2ccccc2)c2nnnn2C)n1` [(3)-4], the “Control value (%)” value is reported as 100% in experiment [1] and 90% in experiment [2].
For `CCCCOC(=O)Nc1cccc(CON=C(c2ccccc2C)c2nnnn2C)n1` [(9)-11], the “Control value (%)” value in experiment [1] and in experiment [2] was 100% each time.
`CCCCCOC(=O)Nc1cccc(CON=C(c2ccccc2)c2nnnn2C)n1` [(3)-9]: the “Control value (%)” value in experiment [1] and in experiment [2] was 100% each time.
As to `Cn1nnnc1C(=NOCc1cccc(NC(=O)OC2CCCC2)n1)c1ccccc1` [(3)-22], the “Control value (%)” value in experiment [1] and in experiment [2] was 100% each time.
With `CCCCCCOC(=O)Nc1nc(CON=C(c2ccccc2)c2nnnn2C)cs1` [(4)-15], the “Control value (%)” value in experiment [1] came out at 80%; in experiment [2], 70%.
As for `CCCCCOC(=O)Nc1cccc(CON=C(c2ccccc2C)c2nnnn2C)n1` [(9)-10], the “Control value (%)” value in experiment [1] and in experiment [2] was 100% in each case.
In the case of `CCCCOC(=O)Nc1cccc(CON=C(c2ccccc2)n2nnnc2C)n1` [(19)-33], the “Control value (%)” value in experiment [1] and in experiment [2] was 100% in each case.
As to `CCCCCC(=O)Nc1cccc(CON=C(c2ccccc2)c2nnnn2C)n1` [(1)-12, (Z)-(1-methyltetrazol-5-yl)phenylmethanoneoxime 0-(6-(hexanoylamino)pyridin-2-yl)methyloxime], the “Control value (%)” value in experiment [1] and in experiment [2] was 100% in each case.
Take `CCCCCC(=O)Nc1nc(CON=C(c2ccccc2)n2nnnc2C)cs1` [(12)-12, (Z)-(5-methyltetrazol-1-yl)phenylmethanoneoxime 0-(2-(n-hexanoylamino)thiazol-4-yl)methyloxime]: the “Control value (%)” value in experiment [1] was 100%; in experiment [2], 90%.
The corresponding values for `Cc1nnnn1C(=NOCc1cccc(NC(=O)C(C)C)n1)c1ccccc1` [(11)-7] are 100% and 100%.
In the case of `Cn1nnnc1C(=NOCc1csc(NC(=O)C(C)(C)C)n1)c1ccc(Cl)cc1` [(8)-17], the “Control value (%)” value in experiment [1] worked out at 80%; in experiment [2] it was 90%.
The corresponding values for `CCCCOC(=O)Nc1cccc(CON=C(c2ccc(F)cc2)n2nnnc2C)n1` [(19)-12] are 100% and 90%.
The corresponding values for `COc1ccc(C(=NOCc2csc(NC(=O)C(C)(C)C)n2)c2nnnn2C)cc1` [(8)-10] are 90% and 70%.
For `Cn1nnnc1C(=NOCc1cccc(NC(=O)OC2CCCCC2)n1)c1ccccc1` [(3)-23], in that order: 100% and 80%.
Consider `Cc1nnnn1C(=NOCc1cccc(NC(=O)OC2CCCCC2)n1)c1ccccc1` [(13)-22], for which the “Control value (%)” value in experiment [1] and in experiment [2] was 100% each time.
With `Cc1ccc(C(=NOCc2cccc(NC(=O)OC(C)(C)C)n2)c2nnnn2C)cc1` [(9)-4], the “Control value (%)” value in experiment [1] and in experiment [2] was 100% in each case.
Take `CCCCOC(=O)Nc1cccc(CON=C(c2ccc(Cl)cc2)n2nnnc2C)n1` [(19)-14]: the “Control value (%)” value in experiment [1] stood at 100%; in experiment [2], 80%.
`CSCCC(=O)Nc1nc(CON=C(c2ccccc2)c2nnnn2C)cs1` [(6)-6]: the “Control value (%)” value was determined as 80% in experiment [1] and 70% in experiment [2].
Regarding `CCCCOC(=O)Nc1cccc(CON=C(c2cccc(F)c2)n2nnnc2C)n1` [(19)-11], the “Control value (%)” value in experiment [1] stood at 90%; in experiment [2], 80%.
The corresponding values for `CCCCOC(=O)Nc1cccc(CON=C(c2ccc(C)cc2)n2nnnc2C)n1` [(19)-16] are 100% and 100%.
As for `CCCOCCC(=O)Nc1nc(CON=C(c2ccccc2)c2nnnn2C)cs1` [(6)-15], the entries for the “Control value (%)” value in experiment [1] and in experiment [2] were 90% and 70%, respectively.
`Cc1nnnn1C(=NOCc1cccc(NC(=O)OC(C)(C)C)n1)c1ccccc1` [(13)-8]: the “Control value (%)” value in experiment [1] is on record as 100%; in experiment [2], 90%.
For `CCCCCCC(=O)Nc1nc(CON=C(c2ccccc2)n2nnnc2C)cs1` [(12)-18], in that order: 100% and 90%.
As to `Cn1nnnc1C(=NOCc1cccc(NC(=O)Cc2ccccc2)n1)c1ccccc1` [(5)-12], the “Control value (%)” value in experiment [1] and in experiment [2] was 100% throughout.
Take `CCCC(=O)Nc1nc(CON=C(c2ccccc2)n2nnnc2C)cs1` [(12)-6]: the “Control value (%)” value in experiment [1] was 100%; in experiment [2] it was 80%.
As to `CCCOC(=O)Nc1cccc(CON=C(c2ccccc2)c2nnnn2C)n1` [(3)-3], the “Control value (%)” value in experiment [1] worked out at 100%; in experiment [2] it was 90%.
The corresponding values for `C=C(C)C(=O)Nc1nc(CON=C(c2ccccc2)c2nnnn2C)cs1` [(6)-7] are 100% and 100%.
For `Cn1nnnc1C(=NOCc1csc(NC(=O)OCc2ccccc2)n1)c1ccccc1` [(4)-18], in that order: 90% and 70%.
Consider `CCCCOC(=O)Nc1cccc(CON=C(c2ccc(C(C)(C)C)cc2)n2nnnc2C)n1` [(19)-35], for which the “Control value (%)” value in experiment [1] is 80%; in experiment [2], 70%.
The corresponding values for `CC(C)C(=O)Nc1nc(CON=C(c2ccccc2)c2nnnn2C)cs1` [(2)-7] are 100% and 90%.

(Values after patent publication US7183299B2 (priority 2001, dated 2007).)
